From patent US6638945B1, “Quinoline derivatives as inhibitors of MEK enzymes” (AstraZeneca AB, priority 1999, dated 2003)

Biological target: human p45MEK1 (GST-MEK) (Homo sapiens, UniProt Q02750)
Assay: Assay for inhibitors of the MAP kinase pathway (coupled GST-MEK/GST-MAPK/MBP 33P assay)
Format: biochemical
Conditions: GST-MEK activated by c-raf, 33P incorporation into myelin basic protein
Method: Assay for inhibitors of the MAP kinase pathway
To evaluate inhibitors of the MAPK pathway a coupled assay was carried out which measures phosphorylation of serine/threonine residues present in the substrate in the presence or absence of inhibitor. Recombinant glutathione S-transferase fusion protein containing human p45MEK1 (GST-MEK) was activated by c-raf (Sf9 insect cell lysate from triple baculoviral infection with c-raf/ras/lck) and used for the assay. Active GST-MEK was first used to activate a recombinant glutathione S-transferase fusion protein containing p44MAP kinase (GST-MAPK) in the presence of ATP and Mg^2+ for 60 min at room temperature in the presence or absence of potential inhibitors. The activated GST-MAPK was then incubated with myelin basic protein (MBP) as substrate for 10 min at room temperature in the presence of ATP, Mg^2+ and ^33P-ATP. The reaction was stropped by addition of 20% v/v phosphoric acid. Incorporation of ^33P into the myelin basic protein was determined by capture of the substrate on a filter mat, washing and counting using scintillation methods. The extent of inhibition was determined by comparison with untreated controls.
The final assay solution contained 10 mM Tris, pH 7.5, 0.05 mM EGTA, 8.33 μM [γ^33P]ATP, 8.33 mM Mg(OAc)2, 0.5 mM sodium orthovanadate, 0.05% w/v BSA, 6.5 ng GST-MEK, 1 μg GST-MAPK and 16.5 μg MBP in a reaction volume of 60 μl.

Sequence of human p45MEK1 (GST-MEK) (Q02750 whole entry): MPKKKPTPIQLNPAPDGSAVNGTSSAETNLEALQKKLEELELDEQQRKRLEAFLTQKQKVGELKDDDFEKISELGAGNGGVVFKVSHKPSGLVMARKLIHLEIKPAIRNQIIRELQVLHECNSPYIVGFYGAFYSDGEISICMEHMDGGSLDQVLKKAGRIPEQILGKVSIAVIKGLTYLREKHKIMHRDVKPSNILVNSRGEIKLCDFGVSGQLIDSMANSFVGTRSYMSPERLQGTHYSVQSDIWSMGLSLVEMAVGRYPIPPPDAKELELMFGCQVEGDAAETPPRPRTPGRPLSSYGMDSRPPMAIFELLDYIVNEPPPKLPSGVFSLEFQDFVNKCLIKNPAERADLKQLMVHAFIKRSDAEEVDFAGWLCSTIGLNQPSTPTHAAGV

With `COc1cc2ncc(F)c(Nc3ccc(Oc4ccccc4)cc3)c2cc1OC` [Compound No 5] as the compound, how does the IC50 read?
The IC50 was 550 nM.
